Source: patent US20260374766A1, “METHODS FOR TREATING CANCER” (Antares Therapeutics, Inc., priority 2022, published 2026)

What was measured:
[1] = test system: H1299 p53 Y220C; experiment: Cell Proliferation Assay (CellTiter-Glo, CTG), H1299 p53 Y220C (NClH1299-inducible p53 Y220C); format: cell-based; details: Homo sapiens, NCI-H1299, 120 h, CellTiter-Glo, H1299 p53 Y220C, 5 days
How it was run: (§1)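 Tet-One inducible p53 Y220C or R273H constructs were stably introduced into NCI-H1299 by lentiviral transduction; NUGC3 was used as is. Cells (250-500 per well) were exposed to compound for 5 days, then CellTiter-Glo was added for 10 min at room temperature and IC50 was calculated from luminescence.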

[2] = molecular target: p53 Y220C (Homo sapiens, UniProt P04637, Y220C); experiment: Luciferase Reporter Assay (Luc), p53 response element, NClH1299 cells with inducible p53 Y220C; format: cell-based; details: luciferase reporter, NClH1299 inducible p53 Y220C, 6 hour; for Emax: 10 uM tool compound as positive control; for AC50: read-out: Luc P53 Y220C AC50
How it was run: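 Steps: seed 5,000 cells/well; induce mutant p53 with 0.5 ug/mL doxycycline for 24 h; treat with compound 6 h; add equal volume One-Glo, shake 5 min at room temperature; measure luciferase immediately.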

[3] = molecular target: T1, p53 Y220C mutant protein (amino acid residues 94-293) (Homo sapiens, UniProt P04637, Y220C); experiment: Thermal Shift Assay (TSA), dTM; format: binding; details: thermal shift; for ΔTm at 100 µM: 100 uM compound, read-out: TSA P53 Y220C dTM (100 uM); for ΔTm at 10 µM: 10 uM compound, read-out: TSA P53 Y220C dTM (10 uM)
T1 construct: p53 Y220C mutant protein (amino acid residues 94-293)
How it was run: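 5 μM protein + 10 μM or 100 μM cpd, 3 h, 20 °C; 20 mM HEPES pH7.4, 100 mM NaCl, 0.01% Pluronic F-127, 1% DMSO, Sypro Orange 400-fold dil. Ramp 30→50 °C, 0.03 °C/s. TM by Boltzmann two-state fit.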

[4] = test system: H1299 p53 R273H; experiment: Cell Proliferation Assay (CellTiter-Glo, CTG), H1299 p53 R273H (NClH1299-inducible p53 R273H); format: cell-based; details: Homo sapiens, NCI-H1299, 120 h, CellTiter-Glo, H1299 p53 R273H, 5 days
How it was run: as §1

[5] = test system: NUGC3 p53 Y220C; experiment: Cell Proliferation Assay (CellTiter-Glo, CTG), NUGC3 p53 Y220C; format: cell-based; details: Homo sapiens, NUGC-3, 120 h, CellTiter-Glo, NUGC3 p53 Y220C, 5 days
How it was run: as §1

[6] = molecular target: T1, p53 Y220C mutant protein (amino acid residues 94-293); experiment: Surface Plasmon Resonance (SPR) assay, Kd_kinetic; format: binding; details: SPR, kinetic KD, p53 Y220C; read-out: SPR P53 Y220C KD kinetic
How it was run: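 Kinetic dissociation constants derived by 1:1 model fit of SPR data acquired at 16 or 20 °C, pH 7.5 Tris/NaCl running buffer with 1% DMSO.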

SMILES	IC50 [1] [µM]	Emax [2] [%]	AC50 [2] [µM]	ΔTm at 100 µM [3] [°C]	IC50 [4] [µM]	Kd [6] [µM]	ΔTm at 10 µM [3] [°C]	IC50 [5] [µM]
CN1CC[C@@H](Nc2cccn3c(CC(F)(F)F)c(C#CCCN)nc23)[C@@H](F)C1 [Example 74, (3S,4R)—N-[2-(4-aminobut-1-yn-1-yl)-3-(2,2,2-trifluoroethyl)imidazo[1,2-a]pyridin-8-yl]-3-fluoro-1-methylpiperidin-4-amine]	> 3	< 70	> 3	5 to 10	≥ 10	0.1 to 1		> 3
CN1CC[C@@H](Nc2cccn3c(CC(F)(F)F)c(C#CCNc4ccc(S(C)(=O)=O)cc4)nc23)[C@@H](F)C1 [Example 76, (3S,4R)-3-fluoro-N-(2-{3-[(4-methanesulfonylphenyl)amino]prop-1-yn-1-yl}-3-(2,2,2-trifluoroethyl)imidazo[1,2-a]pyridin-8-yl)-1-methylpiperidin-4-amine]	0.75 to 1.5	70 to 80	1.5 to 3	5 to 10	≥ 10	< 0.01		0.75 to 1.5
COc1cc(S(=O)(=O)C(C)C)ccc1NCC#Cc1nc2c(N[C@@H]3CCN(C)C[C@@H]3F)cccn2c1CC(F)(F)F [Example 77, (3S,4R)-3-fluoro-N-[2-(3-{[2-methoxy-4-(propane-2-sulfonyl)phenyl]amino}prop-1-yn-1-yl)-3-(2,2,2-trifluoroethyl)imidazo[1,2-a]pyridin-8-yl]-1-methylpiperidin-4-amine]	< 0.75	70 to 80	< 0.75	≥ 10	5 to 8	< 0.01		< 0.75
COc1cc(S(=O)(=O)C(C)C)ccc1NCC#Cc1nc2c(N[C@@H]3CCN(C)C[C@@H]3F)cccn2c1SC(F)(F)F [Example 78, (3S,4R)-3-fluoro-N-[2-(3-{[2-methoxy-4-(propane-2-sulfonyl)phenyl]amino}prop-1-yn-1-yl)-3-[(trifluoromethyl)sulfanyl]imidazo[1,2-a]pyridin-8-yl]-1-methylpiperidin-4-amine]	< 0.75	80 to 90	< 0.75	≥ 10	≥ 10	< 0.01		< 0.75
COc1cc(S(=O)(=O)C2CC2)ccc1NCC#Cc1nc2c(N[C@@H]3CCN(C)C[C@@H]3F)cccn2c1SC(F)(F)F [Example 81, (3S,4R)—N-[2-(3-{[4-(cyclopropanesulfonyl)-2-methoxyphenyl]amino}prop-1-yn-1-yl)-3-[(trifluoromethyl)sulfanyl]imidazo[1,2-a]pyridin-8-yl]-3-fluoro-1-methylpiperidin-4-amine]	< 0.75	80 to 90	< 0.75	≥ 10	5 to 8	< 0.01		< 0.75
CCNC(=O)c1ccc(NCC#Cc2nc3c(N[C@@H]4CCN(C)C[C@@H]4F)cccn3c2SC(F)(F)F)c(OC)c1 [Example 85, N-ethyl-4-{[3-(8-{[(3S,4R)-3-fluoro-1-methylpiperidin-4-yl]amino}-3-[(trifluoromethyl)sulfanyl]imidazo[1,2-a]pyridin-2-yl)prop-2-yn-1-yl]amino}-3-methoxybenzamide]	< 0.75	80 to 90	< 0.75	≥ 10	5 to 8	< 0.01		< 0.75
COc1cc(C(=O)NC2CC2)ccc1NCC#Cc1nc2c(N[C@@H]3CCN(C)C[C@@H]3F)cccn2c1SC(F)(F)F [Example 86, N-cyclopropyl-4-{[3-(8-{[(3S,4R)-3-fluoro-1-methylpiperidin-4-yl]amino}-3-[(trifluoromethyl)sulfanyl]imidazo[1,2-a]pyridin-2-yl)prop-2-yn-1-yl]amino}-3-methoxybenzamide]	< 0.75	80 to 90	< 0.75	≥ 10	5 to 8	< 0.01		< 0.75
COc1cc(C(=O)N2CCC2)ccc1NCC#Cc1nc2c(N[C@@H]3CCN(C)C[C@@H]3F)cccn2c1SC(F)(F)F [Example 87, (3S,4R)—N-[2-(3-{[4-(azetidine-1-carbonyl)-2-methoxyphenyl]amino}prop-1-yn-1-yl)-3-[(trifluoromethyl)sulfanyl]imidazo[1,2-a]pyridin-8-yl]-3-fluoro-1-methylpiperidin-4-amine]	< 0.75	80 to 90	< 0.75	≥ 10	8 to 10	< 0.01		< 0.75

Now from value to molecule, other results behind:

IC50 [1] [µM]	Emax [2] [%]	AC50 [2] [µM]	ΔTm at 100 µM [3] [°C]	IC50 [4] [µM]	Kd [6] [µM]	ΔTm at 10 µM [3] [°C]	SMILES	IC50 [5] [µM]
< 0.75	80 to 90	< 0.75	≥ 10	8 to 10	< 0.01		CCS(=O)(=O)c1ccc(NCC#Cc2nc3c(N[C@@H]4CCN(C)C[C@@H]4F)cccn3c2SC(F)(F)F)c(OC)c1 [Example 79, (3S,4R)—N-[2-(3-{[4-(ethanesulfonyl)-2-methoxyphenyl]amino}prop-1-yn-1-yl)-3-[(trifluoromethyl)sulfanyl]imidazo [1,2-a]pyridin-8-yl]-3-fluoro-1-methylpiperidin-4-amine]	< 0.75
< 0.75	80 to 90	< 0.75	≥ 10	5 to 8	< 0.01		CCS(=O)(=O)c1ccc(NCC#Cc2nc3c(N[C@@H]4CCNC[C@@H]4F)cccn3c2SC(F)(F)F)c(OC)c1 [Example 80, (3S,4R)—N-[2-(3-{[4-(ethanesulfonyl)-2-methoxyphenyl]amino}prop-1-yn-1-yl)-3-[(trifluoromethyl)sulfanyl]imidazo[1,2-a]pyridin-8-yl]-3-fluoropiperidin-4-amine]	< 0.75
< 0.75	80 to 90	< 0.75	≥ 10	8 to 10	< 0.01		COc1cc(S(C)(=O)=O)ccc1NCC#Cc1nc2c(N[C@@H]3CCN(C)C[C@@H]3F)cccn2c1SC(F)(F)F [Example 82, (3S,4R)-3-fluoro-N-(2-{3-[(4-methanesulfonyl-2-methoxyphenyl)amino]prop-1-yn-1-yl}-3-[(trifluoromethyl)sulfanyl]imidazo[1,2-a]pyridin-8-yl)-1-methylpiperidin-4-amine]	< 0.75
< 0.75	70 to 80	< 0.75	≥ 10	5 to 8	< 0.01	≥ 10	COc1cc(S(C)(=O)=O)ccc1NCC#Cc1nc2c(N[C@@H]3CCNC[C@@H]3F)cccn2c1SC(F)(F)F [Example 83]	< 0.75
1.5 to 3	80 to 90	1.5 to 3	≥ 10	≥ 10	< 0.01	5 to 10	COc1ccc(S(C)(=O)=O)cc1NCC#Cc1nc2c(N[C@@H]3CCN(C)C[C@@H]3F)cccn2c1SC(F)(F)F [Example 84, (3S,4R)-3-fluoro-N-(2-{3-[(5-methanesulfonyl-2-methoxyphenyl)amino]prop-1-yn-1-yl}-3-[(trifluoromethyl)sulfanyl]imidazo[1,2-a]pyridin-8-yl)-1-methylpiperidin-4-amine]	1.5 to 3
